Source: article PMC8318231, “Rate-of-Kill (RoK) assays to triage large compound sets for Chagas disease drug discovery: Application to GSK Chagas Box” (PLoS Neglected Tropical Diseases, 2021)

Columns and labels:
[1] = test system: T. cruzi Tulahuen trypomastigotes; assay: T. cruzi trypomastigote assay (Cell Titer-Glo viability, ATP luminescence); assay type: cell-based, Trypanosoma cruzi; conditions: for Trypomastigotes pIC50 48 hours: 48 hours incubation; for Trypomastigotes pIC50 48 hours / Trypomastigotes pIC50 72 hours: pIC50 = -log10 IC50 in molar units; for Trypomastigotes pIC50 72 hours: 72 hours incubation; for 48 pIC50 / 72 pIC50: trypomastigote assay; for 48 pIC50: 48 h; for 72 pIC50: 72 h
Description: T. cruzi Tulahuen trypomastigotes obtained from the supernatants of LLC-MK2 infected cultures in a 225 cm^2 T-Flasks harvested between days 5 and 8 of infection. Trypomastigotes (5 × 10^4 per well) in 50 μl of DMEM/ 2% FBS were dispensed into white 384 plates (Greiner) pre-stamped with 250 nl compound a single-shot final concentration of 5 μM, or in dose response. […] Cell Titer-Glo cell viability solution (Promega) was added to each well (50 μL) incubated at room temperature for 10 min and luminescence read by Envision plate reader (Perkin Elmer). This assay quantifies the amount of ATP present which is directly proportional to the number of metabolically active cells. All data were normalised (100% effect control for no cells and 0% effect control for DMSO). This assay was adapted from MacLean et al., 2018 [22].

TcCYP51 = conditions: formerly reported; cited from earlier work

Row | Compound | Trypomastigotes pIC50 48 hours [1] | Trypomastigotes pIC50 72 hours [1] | CYP51 pIC50 (TcCYP51) | 48 pIC50 ([1]; figure 1A) | 72 pIC50 ([1]; figure 1A) | 72 pIC50 ([1]; figure 1B)
1 | Cc1ccc(NC(=O)c2ccc(Cl)c(NC(=O)c3ccc([N+](=O)[O-])cc3)c2)cc1 [TCMDC-143150] | 5.8 | 5.6 | < 4 | – | – | –
2 | CC1=C(C(=O)Nc2ccc(Cl)cc2)C(c2ccncc2)n2ncc(C(=O)Nc3ccccc3)c2N1 (stereo not drawn) [TCMDC-143187] | < 4.3 | < 4.3 | 6.9 | < 4.3 | < 4.3 | < 4.3
3 | CCC1Oc2cc(S(=O)(=O)N(C)CC(=O)N3CCc4ccccc4C3)c(C)cc2NC1=O (stereo not drawn) [TCMDC-143332] | < 4.3 | < 4.3 | 6.1 | < 4.3 | < 4.3 | < 4.3
4 | c1cncc(CN(Cc2ccco2)Cc2cn[nH]c2-c2cccs2)c1 [TCMDC-143440] | 4.4 | < 4.3 | 7.1 | – | – | –
5 | COc1ccc2nccc([C@H](O)CN3CC[C@H](NC(=O)c4ccc(Br)cc4)[C@@H](O)C3)c2n1 [TCMDC-143527] | < 4.3 | < 4.3 | 5.2 | < 4.3 | < 4.3 | < 4.3
6 | CN(Cc1ccc(F)cc1)c1ccc(OCC(=O)N2CCCCC2c2cccnc2)nn1 (stereo not drawn) [TCMDC-143334] | < 4.3 | < 4.3 | 7.3 | < 4.3 | < 4.3 | < 4.3
7 | O=C(c1cnn(-c2ccccc2)n1)N1CCCC(n2ccnc2)C1 (stereo not drawn) [TCMDC-143492] | < 4.3 | < 4.3 | 7.1 | < 4.3 | < 4.3 | < 4.3
8 | Clc1cc(Br)ccc1OCCCCn1ccnc1.O=C(O)C(=O)O [TCMDC-143590] | 5.4 | 5.3 | 7.2 | – | – | –
9 | O=C(Nc1ccc(Br)cn1)c1ccc(Cn2cnc([N+](=O)[O-])n2)cc1 [TCMDC-143156] | 6.1 | 6.1 | < 4 | 6.1 | 6.1 | 6.1
10 | Cc1ccc(C)c(-n2nnnc2Sc2nc([N+](=O)[O-])nn2C)c1 [TCMDC-143530] | 5.3 | 5.4 | < 4 | – | – | –
11 | Nc1ncnc2c1ncn2[C@@H]1O[C@H](CO)C[C@H]1O [TCMDC-143080] | < 4.3 | 6 | < 4 | – | – | –
12 | N#Cc1c(Oc2cccc(Cl)c2)cccc1[N+](=O)[O-] [TCMDC-143608] | 6.9 | 6.9 | < 4 | 6.9 | 6.9 | 6.9
13 | Cc1c([N+](=O)[O-])c(C(=O)Nc2sc3c(c2C#N)CCC(C)C3)nn1C (stereo not drawn) [TCMDC-143155] | 5.3 | 5.3 | < 4 | 5.3 | 5.3 | 5.3
14 | Cc1cccc(NS(=O)(=O)c2ccc3c(c2)C(=O)c2cc(S(=O)(=O)Nc4cccc(C)c4C)ccc2-3)c1C [TCMDC-143615] | 5 | 4.8 | < 4 | – | – | –
15 | Fc1ccccc1N1C[C@H]2CCN(c3cccnc3)C[C@H]2C1.O=C(O)C(F)(F)F [TCMDC-143422] | 4.6 | < 4.3 | 7.2 | – | – | –
16 | Cc1nn(C2CCS(=O)(=O)C2)c(C)c1CN(C)C(=O)C=Cc1sc2ccccc2c1Cl (stereo not drawn) [TCMDC-143258] | 4.4 | 4.7 | 7.5 | – | – | –

Row | Compound | Trypomastigotes pIC50 48 hours [1] | Trypomastigotes pIC50 72 hours [1] | CYP51 pIC50 (TcCYP51) | 48 pIC50 ([1]; figure 1A) | 72 pIC50 ([1]; figure 1A) | 72 pIC50 ([1]; figure 1B)
17 | CS(=O)(=O)O.Cc1cc(Br)cc(C(=O)c2c(C(C)C)c(=O)[nH]c(=O)n2Cc2ccnc(N)c2)c1 [TCMDC-143626] | < 4.3 | < 4.3 | 7.8 | < 4.3 | < 4.3 | < 4.3
18 | Cc1c(CNC(=O)c2ccc(Cn3cc(Cl)c([N+](=O)[O-])n3)cc2)cnn1C [TCMDC-143153] | 4.7 | 5.3 | < 4 | – | – | –
19 | O=C(Nc1ncc([N+](=O)[O-])s1)C1CC1 [TCMDC-143417] | 6.1 | 6 | < 4 | – | – | –
20 | Cc1cc(C)nc(N2CCC(N(Cc3cccnc3)C(=O)c3cccc(C#N)c3)CC2)n1 [TCMDC-143272] | < 4.3 | < 4.3 | 6.9 | < 4.3 | < 4.3 | < 4.3
21 | Cc1ccc(NC(=O)C(C)n2nc([N+](=O)[O-])c(Br)c2C)cc1Cl (stereo not drawn) [TCMDC-143338] | 5.5 | 5.3 | < 4 | – | – | –
22 | O=C(Nc1nc(-c2ccc(S(=O)(=O)N3CCOCC3)cc2)cs1)c1ccc([N+](=O)[O-])cc1 [TCMDC-143282] | 5.8 | 5.8 | < 4 | 5.8 | 5.8 | 5.8
23 | Cc1ccc2c(c1)-c1onc(C(=O)N3CCCCC3c3cccnc3)c1CO2 (stereo not drawn) [TCMDC-143191] | 4.7 | 4.4 | 7 | – | – | –
24 | O=S(=O)(NCC(c1cccnc1)N1CCN(c2ccc(F)cc2)CC1)c1cccs1 (stereo not drawn) [TCMDC-143542] | < 4.3 | < 4.3 | 7.4 | < 4.3 | < 4.3 | < 4.3
25 | COc1ccc(C(=O)N2CCC(Nc3cccnc3)C2)c(OC)n1 (stereo not drawn) [TCMDC-143474] | < 4.3 | < 4.3 | 7.2 | < 4.3 | < 4.3 | < 4.3
26 | Cc1ccc2nc(N(Cc3cccnc3)C(=O)CCc3ccccc3)sc2c1 [TCMDC-143553] | 4.7 | < 4.3 | 7.2 | – | – | –
27 | CCC(c1ccc(F)cc1)n1cncc1-c1cnn(C)c1 (stereo not drawn) [TCMDC-143416] | < 4.3 | < 4.3 | 7.1 | < 4.3 | < 4.3 | < 4.3
28 | Cc1ccc2ccc(C(Nc3ccccn3)c3cccnc3)c(O)c2n1 (stereo not drawn) [TCMDC-143308] | 5.7 | 5.4 | 7.3 | – | – | –
29 | O=C(Cn1cnc2cc([N+](=O)[O-])ccc2c1=O)NCCc1ccc(Cl)cc1Cl [TCMDC-143519] | 5.9 | 6.1 | < 4 | – | – | –
30 | C=CCn1nc([N+](=O)[O-])nc1Oc1ccc(Cl)cc1Cl [TCMDC-143151] | 6.1 | 6.3 | 4.7 | – | – | –
31 | CCCC(=O)N(Cc1ccccn1)c1nc2ccccc2s1 [TCMDC-143599] | < 4.3 | < 4.3 | 7.3 | < 4.3 | < 4.3 | < 4.3
